Results on one compound are retold here after patent US20180168215A1, “NUTRITIONAL COMPOSITIONS CONTAINING INOSITOL AND USES THEREOF” (Mead Johnson Nutrition Company, priority 2016, published 2018).

One experiment concerns E18 hippocampal neurons. The experiment is described as follows: Axon growth in microfluidic devices, immunohistochemistry with β-tubulin III. It is filed as cell-based. The conditions noted are these: addition of 600 μM inositol vs inositol free media. The source says: Example 3 illustrates that inositol exposure increases neuronal axon growth. Generally, an axon is a long, slender projection of a neuron that conducts electrical impulses away from the neuron's cell body. Myelinated axons are generally known as nerve fibers. Axons make contact with other neurons at synapses. Therefore, the healthy status of a neural axon is fundamentally important for proper brain function. The integrity and growth of axons can be measured by immunohistochemistry with β-tubulin III. Indeed, illustrated herein, the absence of inositol causes axon growth to stop and truncate prematurely; while supplementation of inositol provides healthy growth of neuronal axons. […] The axons of hippocampal neurons lost continuity and disintegrated. […] Taken together, inositol is essential for axon development and higher concentrations of inositol benefits the extension of axons.

In experiment [1] the test system is hippocampal cultures from embryonic E18 rats. The experiment is described as follows: Synaptogenesis in embryonic neuronal culture, quantitative immunostaining for Bassoon, Homer and MAP2. The experiment is classed as cell-based, rat. The source says: Example 4 illustrates that supplementation with inositol produces strong synaptogenic effects. Nerve cells communicate with each other in the brain through specialized junctions, called synapses. These junctions start to form in the human brain before birth and continue to develop at a rapid rate in the early postnatal period. Changes in this synaptogenic process impair the wiring of the brain and can cause developmental disorders. While effects related to caloric intake and selected nutrients on general brain function have been characterized, limited information exists on the specific roles of nutrients and natural nutrients in synapse formation. Accordingly, Example 4 illustrates the effects of inositol on hippocampal neurons and analyzed them by quantitative immunostaining for synaptic markers. Dissociated neuronal cultures were prepared from rat hippocampus and used in this culture system. It was observed that neurons undergo most rapid synaptogenesis at or by day 14 in vitro (14DIV). By day 21 in vitro (21 DIV), most neurons have become mature and synapse formation occurs at a slower rate. Accordingly, testing at day 14 or 21 in vitro therefore allows for distinguishing nutrient effects at different developmental stages. The neurons were grown in either in standard neurobasal NB medium which contains 40 uM inositol according to the manufacturer; or in 200 μM inositol using custom made medium from LifeTechnology that lacks inositol and that was supplemented with inositol to 200 μM; or without inositol using just the custom made medium from the same manufacturer that lacks inositol. The neurons and synapses were determined by staining Bassoon as a presynaptic active zone marker in green fluorescence, Homer as a postsynaptic marker in red, and MAP2 as a dendrite marker in blue. […] Quantitively, increasing inositol to higher concentrations further promoted its synaptogenic effects (see FIG. 4D) at pre-synaptic sites. The pre-synapses were measured by quantifying the number of bassoon in the puncta per 10 micron dendrite. […] The results were determined by quantitative immunostaining for the presynaptic marker (Bassoon) and the excitatory postsynaptic (Homer). (See. FIG. 4E). Indeed, as shown in FIGS. 4A-4C, hippocampal cultures from embryonic E18 rats grown at the indicated inositol concentrations were analyzed by quantitative immunostaining. FIG. 4A illustrates neurons grown under control conditions and stained for the presynaptic marker Bassoon (in green), the postsynaptic scaffold protein Homer (in red), and the dendritic marker MAP2 (in blue). FIG. 4B illustrates neurons grown with supplemented inositol at 200 μM from 4-14 days in vitro. FIG. 4C illustrates neurons grown without inositol. […] Additionally, FIG. 5 illustrates that treatment with inositol promotes the alignment of pre- and post-synaptic sites. […] Hippocampal cultures from embryonic rats were analyzed by quantitative immunostaining. […] In brief, the presynaptic markers were stained with […] and are shown in green and the post-synaptic markers were stained with homer in and are shown in red. The co-localization of pre- and post-synapse was determined the appearance of a yellow signal, which is produced when green color mixes with red. The quantification was analyzed by using Imag J software and co-localization was calculated by counting the numbers of yellow puncta per […] dendrite. Briefly, hippocampal cultures from embryonic rats were analyzed by quantitative immunostaining. […] The pre-synapse size was determined by the puncta size of bassoon; while the post-synapse size by that of homer. The histochemistry images were analyzed by using Image J software.

The next experiment deals with rat hippocampal neurons. Nature of the experiment: FM dye release on electrical field stimulation of neurons in microfluidic devices. It is filed as cell-based. The conditions noted are these: for releasing FM Dye as an indicator of neural transmitter release: 9DIV. The source says: Example 1 illustrates that inositol has a does dependent effect on neurotransmission. Due to the continuum of synapse development in vivo, it is difficult to quantitatively assess synapse development. However, in order to provide at time stamp for synapse development, Example 1 is directed to a PDL-coated bead in a culture medium designed to induce synaptic formation. […] By adding the PDL-coated beads to the axonal compartment of the microfluidic compartment, it allows for the visualization of presynaptic terminal development without the overwhelming signal from somata or dendrites. Indeed, this experimental set-up allows for the subjection of distinct compartments to nutrients of interest. The method used herein is described in the reference, Taylor, A. M. et al. “A microfluidic culture platform for CNS axonal injury regeneration and transport.” Nat Methods, 2005. 2(8): p. 599-605, which is incorporated by reference. Briefly, the microfluidic chip contains four chambers, two at the left side and two at the right connected by microgrooves in the center. The cortical and hippocampal dissociated neurons from embryonic rat (E18) and mouse (E17) were seeded in the left (somal) side of the chambers with a density of approximately 3×10^6 cells/ml, yielding approximately 3,000 cells in the somal side of the chamber. The PDL-coated nanobeads were added to the right side of the chamber. In each testing condition, the culture medium contains different nutrient. The immunohistochemistry analysis was performed in order to assess the impact on synaptic development provided by the nutrients. The cultures were fixed using 4% paraformaldehyde for 30 min at room temperature. The cultures then were washed twice with phosphate-buffered saline (PBS) for 5 min, and then permeabilized using PBS with 0.2% Triton X-100 for 30 min. To block nonspecific binding, PBS with 0.2% Triton X-100 and 10% goat serum was used. The primary antibodies were exposed to PBS with 0.2% Triton X-100 and 5% goat serum at 4° C. overnight, followed by brief rinsing of the cultures 3 times for 10 min. They were then incubated them with secondary antibody (conjugated with Alexa Fluor 488 or 568) in PBS for 1 h. The images were taken and quantified by using confocal microscopy. At embryonic Day 18, rat hippocampal neurons were plated on to microfluidic devices and inositol was added to both somal and axonal compartments from second day in vitro. Cultures were exposed with different concentrations of inositol at 200 μM, 600 μM, 1200 μM, or the control 40 μM, every 3 days by completely changing the media every three days. At 9 days in vitro (9DIV) the cultures were loaded with FM dye and electrical field stimulation of somal compartments was performed on each for about one minute.

In a further experiment the test system is hippocampal neurons. Nature of the experiment: PDL-coated bead presynaptic formation, immunostaining for synapsin1, bassoon and β-tubulin III. It is filed as cell-based, rat. The source says:
Example 1 illustrates that inositol has a does dependent effect on neurotransmission. Due to the continuum of synapse development in vivo, it is difficult to quantitatively assess synapse development. However, in order to provide at time stamp for synapse development, Example 1 is directed to a PDL-coated bead in a culture medium designed to induce synaptic formation. […] By adding the PDL-coated beads to the axonal compartment of the microfluidic compartment, it allows for the visualization of presynaptic terminal development without the overwhelming signal from somata or dendrites. Indeed, this experimental set-up allows for the subjection of distinct compartments to nutrients of interest. The method used herein is described in the reference, Taylor, A. M. et al. “A microfluidic culture platform for CNS axonal injury regeneration and transport.” Nat Methods, 2005. 2(8): p. 599-605, which is incorporated by reference. Briefly, the microfluidic chip contains four chambers, two at the left side and two at the right connected by microgrooves in the center. […] The images were taken and quantified by using confocal microscopy. […] The measurements were quantified and subjected to statistical analysis by two-way ANOVA.

In experiment [2] the test system is Hippocampal cultures from embryonic rats. The experiment is described as follows: Inositol plus DHA, presynaptic Bassoon puncta by quantitative immunostaining. The experiment is classed as cell-based, rat. The conditions noted are these: compared to a DMSO control; FIG. 7. On the procedure:
Example 5 illustrates synergistic effect of inositol and DHA. FIG. 7 illustrates the effect of inositol in combination with DHA for presynaptic development. Hippocampal cultures from embryonic rats were analyzed by quantitative immunostaining. […] (See FIG. 7).

Regarding `O[C@H]1[C@H](O)[C@@H](O)[C@H](O)[C@@H](O)[C@H]1O` [inositol], the axon growth result in the experiment on E18 hippocampal neurons is “restore and promote the healthy growth of axons”. The “pre-synaptic puncta density (number of bassoon puncta per 10 micron dendrite)” value in experiment [1] (compared to control as well as DHA at 20 μM, FIG. 4D) is given as “increase the pre-synaptic puncta density in a statistically significant manner”. Besides, the “post-synaptic sites as measured by post-synaptic marker (Homer) density” value in experiment [1] (higher concentrations of inositol, compared to the control and DHA at 20 μM, FIG. 4E) was “enhance post-synaptic sites”. Besides, the “overall health of neuron” value in experiment [1] (increasing inositol) is recorded as “promotes the overall health of neuron”. In addition, the “density of pre- and post-synaptic specializations” value in experiment [1] (increasing inositol from standard 40 μM to 200 μM) was “substantially elevates the density of pre- and post-synaptic specializations”. Besides, the “effect on synapse number relative to DHA” value in experiment [1] (lowest tested concentrations of inositol) was “effects comparable to DHA”. For the same compound, the “size of presynaptic sites (Bassoon puncta size)” value in experiment [1] (supplementation from 4-14 days in vitro, FIG. 6A) was “increase the size of presynaptic sites”. The “size of postsynaptic sites (Homer puncta size)” value in experiment [1] (supplementation from 4-14 days in vitro, FIG. 6B) was “increase the size”. Moreover, the “co-localization of pre-synaptic (Bassoon) with post synaptic (Homer) sites” value in experiment [1] (treatment from 4-14 days in vitro, FIG. 5) is on record as “increased the extent to which pre-synaptic sites (as measured by Bassoon staining) co-localized with post synaptic sites”. Also, the synapse number result in experiment [1] (treatment from 7-14 days in vitro) was “increased synapse number”. Further, the “releasing FM Dye as an indicator of neural transmitter release” value in the experiment on rat hippocampal neurons (200 μM inositol vs control wells containing 40 μM inositol) and with rat hippocampal neurons (600 μM inositol vs control wells containing 40 μM inositol) was “significant increases in releasing FM Dye” in each case. The “neural transmitter releasing, consistency of results” value in the experiment with rat hippocampal neurons (600 μM inositol wells) is “consistent and robust results with enhanced neural transmitter releasing”. In the experiment with rat hippocampal neurons (tested 200, 600, 1200 μM, dose dependent, statistically significant), the “concentration at which the highest effects on FM dye releasing were observed” value stood at 600 µM. Moreover, the “synapsin 1 and bassoon clustering at the bead-axon terminals” value in the experiment on hippocampal neurons (10DIV hippocampal neurons, FIGS. 2A and 2B) was “increases synapsin 1 and bassoon clustering”. The presynaptic assembly entry in the experiment with hippocampal neurons (inositol at 600 μM vs 40 μM control, FIG. 2A) was “significantly increases the presynaptic assembly”. Further, the “presynaptic Bassoon puncta” value in experiment [2] was “increased the presynaptic Basson puncta”.
